Source: US20180271863A1, “TARGETING P2 PURINERGIC RECEPTORS TO TREAT HEPATOCELLULAR CARCINOMA (HCC)” (Baylor College of Medicine, priority 2015, published 2018)

Tests used:
Format in all cases: cell-based, human
SNU-387 cells [1] = experiment: MTT assay of cell proliferation and viability, SNU-387; conditions: ATP 100 μM, 18 h
Method: (§1) Normal human primary hepatocytes isolated from healthy adults (no known history of HCC) in suspension or freshly-frozen prior to shipment (Cryoport Systems, CA) were purchased from Triangle Research Labs, NC. Fresh hepatocytes were plated on collagen-coated tissue culture plates or glass coverslips in Williams E complete media with additives (10% fetal bovine serum, 2 mM glutamine, […] insulin, 4 ng/ml glucagon, […] transferrin, 2.5 ng/ml sodium selenite, 10,000 U/ml penicillin, […] streptomycin, 50 g/ml gentamycin) for 3 h to ensure hepatocyte adherence to plates. Subsequently, hepatocytes were maintained in Williams E minimal media free from serum and growth factors for 24 h prior to treatment. Human hepatocellular carcinoma derived Huh7, and Hep3B, were cultured in Minimum Essential Medium Eagle (MEM); SNU-387 was cultured in Roswell Park Memorial Institute (RPMI) medium and PLC/PRF/5 cultured in Dulbecco's Modified Eagle's medium (DMEM). All maintenance culture media were supplemented with 10% fetal bovine serum (FBS), L-Glutamine (2 mM), penicillin (100 units/ml) and streptomycin ([…]) at 37° C. and 5% CO2. […]
(§2) Cell viability was determined using the 3-(4, 5-dimethylthiazol-2-yl)-2,5-diphenyltetrazolium (MTT, Sigma) assays. […] After shaking the plates for 30 min, the absorbance at 570 nm was measured (background subtraction at […]).

PLC/PRF/5 cells [2] = experiment: BrdU incorporation (proliferation) in PLC/PRF/5 cells; conditions: SFM 24 hours, ATP 24 hours
Method: (§3) To determine whether P2 purinergic receptor activation influences HCC cell proliferation, BrdU incorporation was assessed in HCC cells maintained in SFM for 24 hours and treated with ATP for 24 hours. ATP treatment alone was sufficient to induce proliferation in each of these cell lines (Huh7, 34%; Hep3B, 46%; SNU-387, 47% and PLC/PRF/5, 24%), identifying nucleotides as liver cancer cell mitogens (FIG. 7A).
(§4) Normal human primary hepatocytes isolated from healthy adults (no known history of HCC) in suspension or freshly-frozen prior to shipment (Cryoport Systems, CA) were purchased from Triangle Research Labs, NC. Fresh hepatocytes were plated on collagen-coated tissue culture plates or glass coverslips in Williams E complete media with additives (10% fetal bovine serum, 2 mM glutamine, […] insulin, 4 ng/ml glucagon, […] transferrin, 2.5 ng/ml sodium selenite, 10,000 U/ml penicillin, […] streptomycin, 50 g/ml gentamycin) for 3 h to ensure hepatocyte adherence to plates. […]
(§5) Formalin-fixed and paraffin embedded liver sections from HCC patients were analyzed by immunohistochemistry with anti-P2X3 antibody (Abcam, Cambridge, Mass.). […] BrdU positive cells were counted and expressed as a percentage of the total number of cells in ten randomly selected high-power fields (20×) per coverslips.

Hep3B cells = experiment: MTT assay of cell proliferation and viability, Hep3B; conditions: ATP 100 μM, 18 h
Method: as §1, §2

PLC/PRF/5 cells [3] = experiment: MTT assay of cell proliferation and viability, PLC/PRF/5; conditions: ATP 100 μM, 18 h
Method: as §1, §2

SNU-387 cells [4] = experiment: BrdU incorporation (proliferation) in SNU-387 cells; conditions: SFM 24 hours, ATP 24 hours
Method: as §3, §4, §5

Huh7 cells [5] = experiment: qRT-PCR of cyclin mRNA in Huh7 cells; conditions: 6 h treatment
Method: Normal human primary hepatocytes isolated from healthy adults (no known history of HCC) in suspension or freshly-frozen prior to shipment (Cryoport Systems, CA) were purchased from Triangle Research Labs, NC. Fresh hepatocytes were plated on collagen-coated tissue culture plates or glass coverslips in Williams E complete media with additives (10% fetal bovine serum, 2 mM glutamine, […] insulin, 4 ng/ml glucagon, […] transferrin, 2.5 ng/ml sodium selenite, 10,000 U/ml penicillin, […] streptomycin, 50 g/ml gentamycin) for 3 h to ensure hepatocyte adherence to plates. Subsequently, hepatocytes were maintained in Williams E minimal media free from serum and growth factors for 24 h prior to treatment. Human hepatocellular carcinoma derived Huh7, and Hep3B, were cultured in Minimum Essential Medium Eagle (MEM); SNU-387 was cultured in Roswell Park Memorial Institute (RPMI) medium and PLC/PRF/5 cultured in Dulbecco's Modified Eagle's medium (DMEM). All maintenance culture media were supplemented with 10% fetal bovine serum (FBS), L-Glutamine (2 mM), penicillin (100 units/ml) and streptomycin ([…]) at 37° C. and 5% CO2. Cells were maintained in serum free media (containing 2 mM L-Glutamine, 100 units/ml penicillin and ([…])) streptomycin for 24 h prior to treatment. Total RNA was isolated from human livers or cells using Trizol Reagent according to manufacturer's instructions (Invitrogen, NY). Complementary DNA (cDNA) synthesis was performed by reverse transcription of total RNA (2 μg) with high capacity cDNA reverse transcription kit (Applied Biosystems, Foster city, CA). The cDNA product was amplified by qRT-PCR in Step One Plus Real-Time PCR system using SYBR Green PCR Master Mix (Applied Biosystems, Grand Island, N.Y.). Quantitative expression values were determined using the […] as specified by manufacturers using GAPDH as a control.

Huh7 cells [6] = experiment: Western blotting for JNK phosphorylation in Huh7 cells; conditions: 100 μM, 15 min
Method: Applicants have previously shown that extracellular nucleotide-mediated activation of JNK signaling induces cell-cycle progression and proliferation of rat primary hepatocytes in vitro. To determine whether extracellular nucleotides induce JNK signaling in transformed hepatocytes, Huh7 cells were treated with nucleotides for 5, 15 and 30 min and total protein extracts were analyzed by Western blotting for JNK phosphorylation (Ser^Thr/Tyi). ATPγS treatment alone was sufficient to induce JNK phosphorylation as early as 15 min (1.7 fold) (FIG. 10A). […] Total protein extracts were obtained by homogenizing cells in total lysis buffer (50 mM Tris-HCl, pH 7.5, 0.5 M NaCl, 2 mM EGTA, 2 mM EDTA, 1.0% Triton X-100, 0.25% Deoxycholate, 1 m/ml pepstatin, 1.0 m/ml leupeptin, 1.0 m/ml aprotinin, 1.0 mM phenylmethylsulfonyl fluoride, 1.0 mM Dithiothreitol, 2.0 mM activated Na3VO4, and 2.0 mM NaF) and centrifuging at 14,000 rpm for 10 min (4° C.). Equal amounts of total proteins as determined by BCA protein Assay (Pierce, Rockford, Ill.) were analyzed by Western blotting. Blots were probed with antibody specific for a-tubulin or GAPDH to ensure equal loading of proteins in each lane.

Row | Structure (SMILES) | increase in cell proliferation and viability (MTT) (SNU-387 cells [1]) [%] | proliferation (BrdU incorporation) induced by ATP (PLC/PRF/5 cells [2]) [%] | increase in cell proliferation and viability (MTT) (Hep3B cells) [%] | increase in cell proliferation and viability (MTT) (PLC/PRF/5 cells [3]) [%] | proliferation (BrdU incorporation) induced by ATP (SNU-387 cells [4]) [%] | Cyclin D3 mRNA expression vs untreated cells (Huh7 cells [5]) [fold] | JNK phosphorylation (Huh7 cells [6]) [fold]
1 | Nc1ncnc2c1ncn2[C@@H]1O[C@H](COP(=O)(O)OP(=O)(O)OP(=O)(O)O)[C@@H](O)[C@H]1O [ATP] | 90 | 24 | 81 | 43 | 47 |  | 
2 | Nc1ncnc2c1ncn2[C@@H]1O[C@H](COP(=O)(O)OP(=O)(O)OP(O)(O)=S)[C@@H](O)[C@H]1O [ATPγS] |  |  |  |  |  | 2.1 | 1.7
